Data on ten compounds can be found in patent US20230132973A1, “DIHYDRO-SPIRO[INDOLINE-3:1'-iSOQUINOLIN]-2-ONES AS ANTIMALARIAL AGENTS” (The University of Buea, priority 2020, published 2023).

Data set [1] deals with CQ-sensitive 3D7 strain of P. falciparum. Nature of the data set: SYBR green I-based parasite growth inhibition assay, 3D7 strain. The format is cell-based, Plasmodium falciparum. The conditions noted are these: for EC50: Plasmodium falciparum.
The subject of data set [2] is vacuolar lipid dynamics in P. falciparum. The data set can be described thus: Effect on vacuolar lipid dynamics (Oil Red O staining). Particulars: trophozoite stage parasites, 24 h. The format is cell-based, Plasmodium falciparum. As to the method:
Because cellular vacuolation may result from perturbation of intracellular lipid content, we investigated the effect of (±)-moxiquindole on vacuolar lipid dynamics using fluorescent Oil red O as lipid stain.
The effect of the compounds on intracellular lipid dynamics was assessed by measurement of intracellular lipid content using Oil Red O. Briefly, early rings or late trophozoite stage parasites (30 hpi) were treated with the compounds or controls for 24 h under regular culture conditions. Following treatment, inhibitors were removed by centrifugation at 2500 rpm for 5 min and pellets were washed in equal volumes of 1×PBS. The parasites were fixed with 4% paraformaldehyde for 30 min at room temperature and pelleted at 2500. Three volumes of Oil Red O (ORO) stock solution (5 mg/mL in 100% isopropanol) were diluted in two volumes of distilled water and filtered prior to use. About 100 μL of the ORO were added to parasite pellets in the tube and incubated for 30 minutes. Parasites were pelleted and washed twice in distilled water. Thereafter, parasites were deposited on pre-cleaned coverslips and air dried. Dried coverslips were mounted in DAPI antifade reagent onto cleaned slides, air dried and viewed under a 100× oil immersion lens and images acquired using a Leica DM1000 fluorescence microscope suite (LAS version 4.5).

In data set [3] the test system is hemoglobin metabolism in P. falciparum ring and trophozoite stage parasites. Nature of the data set: Effect on hemoglobin degradation (intraparasitic hemoglobin content). Particulars: 10 μM, 24 h, relative to E64-treated cultures. It is filed as cell-based, Plasmodium falciparum. As to the method: Owing to the fact that the DSIIQs are constructed from the THIQ pharmacophore of naphthylisoquinolines, which appear to target proteases involved in hemoglobin degradation, we assessed the effect of this DSIIQ on hemoglobin metabolism. Briefly, tightly synchronized ring and trophozoite stage parasites were treated with test compounds for 24 h followed by parasite isolation and quantification of the intraparasitic hemoglobin contents.
To investigate drug effects on hemoglobin degradation, early ring and mid-trophozoite stage parasites (1.5% hematocrit, 5% parasitemia) were co-cultured with the test compounds or experimental controls (0.1% DMSO, chloroquine, artemisinin NITD609 and E64) at a final concentration of 10 μM. The cultures were incubated at 37° C. and 5% CO2 for 24 h. Following incubation, inhibitors were removed by centrifugation at 1800 rpm for 5 min. The pellets were washed in an equal volume of 1×PBS and re-suspended in same volume of 0.1% saponin (in 1×PBS) for 3 min. Isolated parasites were pelleted at 2500 rpm for 5 min and washed twice in an equal volume of 1×PBS. The resulting parasite pellets were permeabilized by treatment in 20 μL of 1% Triton X-100 (in 1×PBS) for 5 min. Intraparasitic hemoglobin content was measured at 550 nm using a Nanodrop spectrophotometer, and folds increase in intra-parasite hemoglobin content was calculated relative to the E64-treated controls.

Data set [4] concerns asexual blood stages of P. falciparum. The data set can be described thus: Life cycle stage specific action by microscopy of Giemsa-stained thin smears. It is filed as cell-based, Plasmodium falciparum. Particulars: 10 μM, 24 h; for stage specific action on asexual blood stages (ring, trophozoite, schizont): treated at early ring, mid-trophozoite or mid-schizont; for vacuolation in treated parasites: Giemsa-stained thin smears. As to the method: The life cycle stage specific action of (±)-moxiquindole was determined by treatment of parasites at different time points followed by microscopic analysis of Giemsa-stained thin blood smears. Stage proportions were calculated for each asexual parasite stage in the drug treated wells relative to the same stage in the negative control wells.
The inhibitory effects of active compounds or reference drugs on parasite development and schizont rupture were determined by quantitative light microscopy as previously described (Lee et al., 2015). Briefly, synchronized cultures (1.5% hematocrit and 3% parasitemia) at different time-points (early rings, mid trophozoites and schizonts) were treated with either test compound or controls at 10 μM final concentration for 24 h under regular culture conditions. Following treatment, Giemsa-stained thin smears were prepared and parasites were counted in 1,000 erythrocytes per treatment. Stage proportions in test wells relative to solvent control wells were calculated and used to assess the in vitro effects of each compound on trophozoites and schizont development as well as merozoite egress and invasion.

For data set [5], the system named is Malaria parasites (ring-stage parasitized erythrocytes). The data set can be described thus: Drug-combination (drug-drug interaction) studies, SYBR-Green I. It is filed as cell-based, Plasmodium falciparum. The conditions noted are these: in combination with artemisinin. As to the method:
In view of the overlapping modes of action between the hybrids and some known antimalarial drugs in terms of targeted cellular processes, we investigated the interaction between these compounds at variable combination ratios. Malaria parasites were continuously cultured and synchronized as earlier described prior to the assay.
Briefly, two-fold drug dilutions were prepared using a variable potency ratio drug combination approach, starting at 5EC50A: 0EC50B to 0EC50A: 5EC50B in serum-free medium, where A and B represent the different partner molecules.
The test was run for 72 h and terminated when the untreated parasites were at the early trophozoite stage of the second cycle. Parasite viability was assessed by the SYBR-Green I fluorescence-based assay as earlier described. Dose-response curves and EC50 values of each combination and drug alone were obtained using GraphPad Prism v.5.0 and Microsoft Excel was used to calculate mean EC50 values and the standard error of the mean.

Data set [6] has as its system P. chabaudi-infected mice. Nature of the data set: Peter's four-day suppressive test (chemosuppressive activity). It is filed as in vivo, Swiss albino mice. As to the method:
Following the encouraging in vitro antiplasmodial activities and cytotoxicity profiles reported above, as well as the ADMET properties of the primary and secondary hits identified in this study, studies were carried out to assess the in vivo efficacy of these compounds in laboratory mice. Chemosuppressive potentials were assessed using the Peter's four-day test whereas the ability of each compound to cure an established plasmodial infection was determined using the Rane's test. To assess the in vivo chemosuppressive potential of the compounds, groups of P. chabaudi-infected mice were treated by ip injection for 3 days following infection using fixed doses of 0.03, 0.3, 3, 10, or 30 mg/kg for each compound. The percent suppression of parasite growth in treated groups was calculated relative to the control group and the growth inhibition curves plotted.
Eight-week old male Swiss albino mice weighing approximately 23±3 g were housed in cages and maintained in a well-ventilated room under standard environmental conditions of temperature at 22-24° C., under a 12 h dark-light cycle, with food and water provided ad libitum.
The animals were allowed one week acclimation before commencement of the study. Three (3) mice were infected with stocked blood containing Plasmodium chabaudi parasites and used as donors. In brief, frozen blood containing the sulfadoxine/pyrimethamine resistant P. c. chabaudi (AS(50S/P) parasites was thawed and about 200 μL parasites were injected intra-peritoneally (i.p) into each of the three mice and parasitemia monitored through blood smear until a 20% threshold was reached. These infected animals then served as donors to the experimental animals. Ethical approval for the study was obtained from the University of Douala Institutional Review Board (N^oIEC-UD/1146/09/2017/A).
In vivo efficacies were conducted following a modification of the Peter's four-day suppressive test as previously described (Lee et al., 2014, Tarkang et al., 2014). Briefly, following parasite passage in donor mice, the mice were euthanized using diethyl ether and P. c. chabaudi infected blood was obtained by cardiac puncture and placed into heparinized tubes. The blood was then diluted with phosphate buffered saline (PBS) and immediately used to infect the experimental mice. Mice were randomly divided into seven (7) groups of 3 animals and each mouse was injected with 1×10^7 infected erythrocytes intraperitoneally (Day 0). The mice were kept for 24 hours to establish infection and Giemsa thin blood smears were prepared to quantify parasites (Day 1). Thereafter, groups 1, 2, 3, 4 and 5 were treated with compounds dissolved in 1×PBS, intraperitoneally at dosages of 30, 10, 3, 0.3 and 0.03 mg/kg body weight, respectively, while groups 6 and 7 were treated with vehicle or chloroquine at 10 mg/kg, respectively for three consecutive days (Day 1-Day 3). Twenty-four (24) and ninety-six (96) hours post-infection, thin blood smears were prepared from each animal with blood obtained from the tail vein, fixed in methanol and stained with 10% Giemsa.
Parasitemia was determined by light microscopy using a 100× objective lens and the following equation: […]
Average percentage chemosuppression was calculated as
Where A is mean parasitemia in negative control and B is mean parasitemia in test group

Entries after “also recorded” stand apart in the source; their conditions may differ. Where two headings read alike, the source gives them in different places.

Usually melting point stands for the temperature, or range, at which the solid turns liquid. Broadly, the EC50 is the midpoint of the concentration-response curve. In general, ED50 refers to the dose that gives a 50% effect, or the effect in half of the subjects.

For the compound `COc1cc2c(cc1OC)C1(NCC2)C(=O)Nc2ccc([N+](=O)[O-])cc21` (stereo not drawn) [Compound 8e, 6′,7′-dimethoxy-5-nitro-3′,4′-dihydro-2′H-spiro[indoline-3,1′-isoquinolin]-2-one], the melting point was 174 to 175 °C.
For `COc1cc2c(cc1OC)C1(NCC2)C(=O)N(Cc2ccc(Br)cc2)c2ccc(Cl)cc21` (stereo not drawn) [Compound 8k], the “parasite growth inhibition in primary assays” value in data set [1] (primary screening at 10 μM, Pf 3D7, 72 h) is ~52%.
As for `COc1cc2c(cc1OC)C1(NCC2)C(=O)Nc2ccc(N)cc21` (stereo not drawn) [Compound 8f, 5-amino-6′,7′-dimethoxy-3′,4′-dihydro-2′H-spiro[indoline-3,1′-isoquinolin]-2-one], the melting point was 186 to 187 °C.
The compound `COc1cc2c(cc1OC)C1(NCC2)C(=O)Nc2cc(F)c(F)cc21` (stereo not drawn) [Compound 8g, 5,6-difluoro-6′,7′-dimethoxy-3′,4′-dihydro-2′H-spiro[indoline-3,1′-isoquinolin]-2-one] gave a melting point of 220 to 221 °C.
In turn, `COc1cc2c(cc1OC)C1(NCC2)C(=O)Nc2ccc(F)cc21` (stereo not drawn) [Compound 8o, 5-fluoro-6′,7′-dimethoxy-3′,4′-dihydro-2′H-spiro[indoline-3,1′-isoquinolin]-2-one] registered a melting point of 98 to 99 °C.
As for `CC(C)C[C@H](NC(=O)[C@H]1O[C@@H]1C(=O)O)C(=O)NCCCCN=C(N)N` (relative stereo) [Compound E64, L-trans-epoxysuccinyl-leucylamido-(4-guanidino)], the “neutral lipid bodies / vacuolar lipid uptake (Oil red O)” value in data set [2] is recorded as “no effect on vacuolar lipid uptake”. Besides, in data set [3], the “intraparasitic hemoglobin content / accumulation” value was “minimal effect on hemoglobin degradation”. Also, the “stage specific action on asexual blood stages (ring, trophozoite, schizont)” value (from here on “stage specific action”) in data set [4] is on record as “only inhibiting schizont accumulation”.
With `CCN(CC)CCCC(C)Nc1ccnc2cc(Cl)ccc12` (stereo not drawn) [chloroquine], in data set [2], the “neutral lipid bodies / vacuolar lipid uptake (Oil red O)” value was “devoid of neutral lipid bodies”. Moreover, the EC50 in data set [1] (3D7, 72 h) came out at 13.9 nM. For the same compound, the “combination index (CI)” value in data set [5] is recorded as 1.183. Besides, in data set [4], the “stage specific action” value was “rapid accumulation of early rings and trophozoites but not schizonts; also recorded: exhibits inhibitory activities against ring-to-trophozoite development, trophozoite-to-schizont development and schizont rupture”. Besides, the suppression of parasitemia entry in data set [6] (10 mg/kg, compared with 98% by test compounds at 3.0 mg/kg) is given as “comparable level of suppression of parasitemia”.
As to `C[C@@H]1CC[C@H]2[C@@H](C)C(=O)O[C@@H]3O[C@@]4(C)CC[C@@H]1[C@]32OO4` [Artemisinin, artemisinin], the “neutral lipid bodies / vacuolar lipid uptake (Oil red O)” value in data set [2] was “no effect on vacuolar lipid uptake”. In data set [1] (Pf 3D7, 72 h, read-out: EC50), the EC50 worked out at 15.9 nM. Besides, in data set [4], the “stage specific action” value was “high proportions of the treated parasite stage at each treatment time-point; also recorded: exhibits inhibitory activities against ring-to-trophozoite development, trophozoite-to-schizont development and schizont rupture”.
In the case of `COc1cc2c(cc1OC)C1(NC(C)C2)C(=O)Nc2ccc(Cl)cc21` (racemic) [Compound 11, 5-chloro-6′,7′-dimethoxy-3′-methyl-3′,4′-dihydro-2′H-spiro[indoline-3,1′-isoquinolin]-2-one], in data set [3], the “intraparasitic hemoglobin content / accumulation” value is “accumulation of intra-parasitic hemoglobin”. In addition, in data set [1] (Pf 3D7), the “times more potent than (±)-moxiquindole” value stood at 80 times. In data set [1] (Pf 3D7 EC50 ratio), the “fold more active than the primary hit (±)-moxiquindole” value is given as 77 fold. In addition, the EC50 in data set [1] (Pf 3D7, 72 h, read-out: EC50) is 24 nM. Also, the “stage specific action” value in data set [4] is “exhibits inhibitory activities against ring-to-trophozoite development, trophozoite-to-schizont development and schizont rupture”. Moreover, the “vacuolation in treated parasites” value in data set [4] is listed as “induced vacuolation in parasites”. Also, the suppression of parasitemia result in data set [6] (0.3 mg/kg ip) was “slight advantage over (±)-moxiquindole”; in data set [6] (3.0 mg/kg ip), 98%. In addition, in data set [6] (Mus musculus, ip, 72 h, read-out: suppressive ED50), the ED50 is 0.049 mg/kg.
As for `C[C@H]1Cc2c([nH]c3cc(Cl)c(F)cc23)[C@@]2(N1)C(=O)Nc1ccc(Cl)cc12` [NITD609], in data set [4], the “stage specific action” value was “exhibits inhibitory activities against ring-to-trophozoite development, trophozoite-to-schizont development and schizont rupture”; the “vacuolation in treated parasites” value is “induced vacuolation in parasites”.
